Legend:
Type in all cases: in vivo
barnyard grass [1] = test: Test Example 1: weedkilling efficacy, preemergent weed treatment in the submerged state; A: barnyard grass
Outline: (§1)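 Pots of alluvial soil flooded 4 cm deep, sown with barnyard grass, bulrush and oval-leafed pondweed and transplanted with 2.5-leaf rice. Emulsified compound applied to the water surface on sowing day at stated g/ha; greenhouse 25–30 °C, effects assessed 3 weeks after treatment.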

bulrush [2] = test: Test Example 1: weedkilling efficacy, preemergent weed treatment in the submerged state; B: bulrush
Outline: as §1

oval-leafed pondweed [3] = test: Test Example 1: weedkilling efficacy, preemergent weed treatment in the submerged state; C: oval-leafed pondweed
Outline: as §1

transplanted rice = test: Test Example 1: preemergent weed treatment in the submerged state, effect on crop; a: transplanted rice
Outline: as §1

barnyard grass [4] = test: Test Example 2: weedkilling efficacy, growth period weed treatment in the submerged state; A: barnyard grass
Outline: (§2)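 Barnyard grass, bulrush and oval-leafed pondweed sown in alluvial soil under 4 cm flooding, greenhouse 25 to 30° C. At 1-2 leaf stage, water-diluted emulsion applied to the water surface at stated g/ha dosages; effects scored 3 weeks later.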

bulrush [5] = test: Test Example 2: weedkilling efficacy, growth period weed treatment in the submerged state; B: bulrush
Outline: as §2

oval-leafed pondweed [6] = test: Test Example 2: weedkilling efficacy, growth period weed treatment in the submerged state; C: oval-leafed pondweed
Outline: as §2

crabgrass [7] = test: Test Example 3: weedkilling efficacy through soil treatment; D: crabgrass
Outline: (§3)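 Crop and weed responses were judged three weeks after a uniform surface spray of the water-diluted emulsion at the given g/ha rate. Seeds sat beneath about 1.5 cm of sterilized diluvial soil, and boxes stood in a greenhouse at 25 to 30° C.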

green foxtail [8] = test: Test Example 3: weedkilling efficacy through soil treatment; E: green foxtail
Outline: as §3

barnyard grass [9] = test: Test Example 3: weedkilling efficacy through soil treatment; F: barnyard grass; conditions: soil treatment, treatment dosage 320 g/ha
From the text: (§4) Weedkilling Efficacy Test Through Soil Treatment
(§5) Sterilized diluvial soil was introduced into 21 cm long, 13 cm wide, 7 cm deep plastic boxes, and seeds of crabgrass, green foxtail, barnyard grass, wild oat, black-grass, Italian ryegrass, common wind-grass, Indian mallow, redroot pigweed, fig-leafed goosefoot, chickweed, catchweed, birds-eye speedwell, corn, soybean, rice, wheat, beet and rapeseed were each spot-sown, and covered with about 1.5 cm of soil. Next, emulsions of compounds of the present invention prepared according to compounding example 2 were diluted with water to give the specified dosages, and applied uniformly onto the soil surface with a small sprayer. The plants were grown by placing the plastic boxes in a greenhouse at 25 to 30° C., and 3 weeks after the pesticide treatment the effect on each type of plant was investigated on the basis of the assessment criteria of test example 1.
(§6) A: barnyard grass, B: bulrush, C: oval-leafed pondweed, D: crabgrass, E: green foxtail, F: barnyard grass, G: wild oat, H: black-grass, I: Italian ryegrass, J: common wind-grass, K: Indian mallow, L: redroot pigweed, M: fig-leafed goosefoot, N: chickweed, O: catchweed, p: birds-eye speedwell, a: transplanted rice, b: directly sown rice, c: corn, d: soybean, e: wheat, f: beet, g: rapeseed
(§7) Further, pesticide dosage (g/ha) indicates the concentration regulated such that treatment was with only the stated number of grams (g), when calculated per hectare (ha).

wild oat = test: Test Example 3: weedkilling efficacy through soil treatment; G: wild oat; conditions: soil treatment, treatment dosage 320 g/ha
Outline: as §3

black-grass [10] = test: Test Example 3: weedkilling efficacy through soil treatment; H: black-grass
Outline: as §3

Italian ryegrass [11] = test: Test Example 3: weedkilling efficacy through soil treatment; I: Italian ryegrass
Outline: as §3

common wind-grass = test: Test Example 3: weedkilling efficacy through soil treatment; J: common wind-grass; conditions: soil treatment, treatment dosage 320 g/ha
From the text: as §4, §5, §6, §7

Indian mallow [12] = test: Test Example 3: weedkilling efficacy through soil treatment; K: Indian mallow
Outline: as §3

redroot pigweed [13] = test: Test Example 3: weedkilling efficacy through soil treatment; L: redroot pigweed
Outline: as §3

chickweed [14] = test: Test Example 3: weedkilling efficacy through soil treatment; N: chickweed
Outline: as §3

birds-eye speedwell [15] = test: Test Example 3: weedkilling efficacy through soil treatment; p: birds-eye speedwell
Outline: as §3

directly sown rice [16] = test: Test Example 3: soil treatment, effect on crop; b: directly sown rice
Outline: as §3

corn [17] = test: Test Example 3: soil treatment, effect on crop; c: corn
Outline: as §3

soybean [18] = test: Test Example 3: soil treatment, effect on crop; d: soybean
Outline: as §3

wheat [19] = test: Test Example 3: soil treatment, effect on crop; e: wheat
Outline: as §3

beet [20] = test: Test Example 3: soil treatment, effect on crop; f: beet
Outline: as §3

rapeseed = test: Test Example 3: soil treatment, effect on crop; g: rapeseed; conditions: soil treatment, treatment dosage 320 g/ha
From the text: as §4, §5, §6, §7

fig-leafed goosefoot [21] = test: Test Example 3: weedkilling efficacy through soil treatment; M: fig-leafed goosefoot; conditions: treatment dosage 315 g/ha
Outline: as §3

catchweed [22] = test: Test Example 3: weedkilling efficacy through soil treatment; O: catchweed; conditions: treatment dosage 315 g/ha
Outline: as §3

crabgrass [23] = test: Test Example 4: weedkilling efficacy by foliar treatment; D: crabgrass; conditions: treatment dosage 315 g/ha
Outline: (§8)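 Seeds are spot-sown into sterilized diluvial soil and covered with about 1.5 cm of soil. After 14 days' greenhouse growth at 25 to 30° C, plants are sprayed on stems and leaves with diluted emulsion at the stated g/ha rate, then scored at 3 weeks.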

green foxtail [24] = test: Test Example 4: weedkilling efficacy by foliar treatment; E: green foxtail; conditions: treatment dosage 315 g/ha
Outline: as §8

black-grass [25] = test: Test Example 4: weedkilling efficacy by foliar treatment; H: black-grass; conditions: treatment dosage 315 g/ha
Outline: as §8

Italian ryegrass [26] = test: Test Example 4: weedkilling efficacy by foliar treatment; I: Italian ryegrass; conditions: treatment dosage 315 g/ha
Outline: as §8

Indian mallow [27] = test: Test Example 4: weedkilling efficacy by foliar treatment; K: Indian mallow; conditions: treatment dosage 315 g/ha
Outline: as §8

redroot pigweed [28] = test: Test Example 4: weedkilling efficacy by foliar treatment; L: redroot pigweed; conditions: treatment dosage 315 g/ha
Outline: as §8

fig-leafed goosefoot [29] = test: Test Example 4: weedkilling efficacy by foliar treatment; M: fig-leafed goosefoot; conditions: treatment dosage 315 g/ha
Outline: as §8

chickweed [30] = test: Test Example 4: weedkilling efficacy by foliar treatment; N: chickweed; conditions: treatment dosage 315 g/ha
Outline: as §8

catchweed [31] = test: Test Example 4: weedkilling efficacy by foliar treatment; O: catchweed; conditions: treatment dosage 315 g/ha
Outline: as §8

birds-eye speedwell [32] = test: Test Example 4: weedkilling efficacy by foliar treatment; p: birds-eye speedwell; conditions: treatment dosage 315 g/ha
Outline: as §8

directly sown rice [33] = test: Test Example 4: foliar treatment, effect on crop; b: directly sown rice; conditions: treatment dosage 315 g/ha
Outline: as §8

corn [34] = test: Test Example 4: foliar treatment, effect on crop; c: corn; conditions: treatment dosage 315 g/ha
Outline: as §8

soybean [35] = test: Test Example 4: foliar treatment, effect on crop; d: soybean; conditions: treatment dosage 315 g/ha
Outline: as §8

wheat [36] = test: Test Example 4: foliar treatment, effect on crop; e: wheat; conditions: treatment dosage 315 g/ha
Outline: as §8

beet [37] = test: Test Example 4: foliar treatment, effect on crop; f: beet; conditions: treatment dosage 315 g/ha
Outline: as §8

[38] = soil treatment, treatment dosage 320 g/ha

## CC(C)(C(=O)Nc1ccc2ccccc2n1)N1COCN(c2ccccc2)C1=O [A-1-24]
Barnyard grass [1]; treatment dosage 320 g/ha
  A: barnyard grass, weed kill grade: 5 (weed kill ratio 90% or more, (practically complete withering))
Bulrush [2]; treatment dosage 320 g/ha
  B: bulrush, weed kill grade: 5 (weed kill ratio 90% or more, (practically complete withering))
oval-leafed pondweed [3]; treatment dosage 320 g/ha
  C: oval-leafed pondweed, weed kill grade: 5 (weed kill ratio 90% or more, (practically complete withering))
Transplanted rice; treatment dosage 320 g/ha
  a: transplanted rice, effect on crop grade: 0 (weed kill ratio 5% or less (practically no effect))
Barnyard grass [4]; treatment dosage 320 g/ha
  A (barnyard grass) weedkilling efficacy grade: 4 (weed kill ratio 70% or more, less than 90%)
Bulrush [5]; treatment dosage 320 g/ha
  B (bulrush) weedkilling efficacy grade: 5 (weed kill ratio 90% or more, (practically complete withering))
oval-leafed pondweed [6]; treatment dosage 320 g/ha
  C (oval-leafed pondweed) weedkilling efficacy grade: 5 (weed kill ratio 90% or more, (practically complete withering))
Crabgrass [7]; [38]
  D: crabgrass, weedkilling efficacy grade: 3 (weed kill ratio 40% or more, less than 70%)
Green foxtail [8]; [38]
  E: green foxtail, weedkilling efficacy grade: 3 (weed kill ratio 40% or more, less than 70%)
Barnyard grass [9]
  F: barnyard grass, weedkilling efficacy grade: 2 (weed kill ratio 20% or more, less than 40%)
Wild oat
  G: wild oat, weedkilling efficacy grade: 0 (weed kill ratio 5% or less (practically no effect))
black-grass [10]; [38]
  H: black-grass, weedkilling efficacy grade: 1 (weed kill ratio 5% or more, less than 20%)
Italian ryegrass [11]; [38]
  I: Italian ryegrass, weedkilling efficacy grade: 3 (weed kill ratio 40% or more, less than 70%)
Common wind-grass
  J: common wind-grass, weedkilling efficacy grade: 4 (weed kill ratio 70% or more, less than 90%)
Indian mallow [12]; [38]
  K: Indian mallow, weedkilling efficacy grade: 0 (weed kill ratio 5% or less (practically no effect))
Redroot pigweed [13]; [38]
  L: redroot pigweed, weedkilling efficacy grade: 0 (weed kill ratio 5% or less (practically no effect))
Chickweed [14]; [38]
  N: chickweed, weedkilling efficacy grade: 0 (weed kill ratio 5% or less (practically no effect))
birds-eye speedwell [15]; [38]
  P: birds-eye speedwell, weedkilling efficacy grade: 4 (weed kill ratio 70% or more, less than 90%)
Directly sown rice [16]; [38]
  b: directly sown rice, effect on crop grade: 0 (weed kill ratio 5% or less (practically no effect))
Corn [17]; [38]
  c: corn, effect on crop grade: 0 (weed kill ratio 5% or less (practically no effect))
Soybean [18]; [38]
  d: soybean, effect on crop grade: 0 (weed kill ratio 5% or less (practically no effect))
Wheat [19]; [38]
  e: wheat, effect on crop grade: 0 (weed kill ratio 5% or less (practically no effect))
Beet [20]; [38]
  f: beet, effect on crop grade: 0 (weed kill ratio 5% or less (practically no effect))
rapeseed
  g: rapeseed, effect on crop grade: 0 (weed kill ratio 5% or less (practically no effect))

## CC1=C(c2ccc(Cl)s2)C(=O)N(C(C)(C)C(=O)Nc2cccc(Br)n2)CO1 [B-2-03]
Barnyard grass [1]; treatment dosage 252 g/ha
  A (barnyard grass) weedkilling efficacy grade: 5 (weed kill ratio 90% or more, (practically complete withering))
Bulrush [2]; treatment dosage 252 g/ha
  B (bulrush) weedkilling efficacy grade: 5 (weed kill ratio 90% or more, (practically complete withering))
oval-leafed pondweed [3]; treatment dosage 252 g/ha
  C (oval-leafed pondweed) weedkilling efficacy grade: 5 (weed kill ratio 90% or more, (practically complete withering))
Transplanted rice; treatment dosage 252 g/ha
  a (transplanted rice) effect on crop grade: 0 (weed kill ratio 5% or less (practically no effect))
Barnyard grass [4]; treatment dosage 252 g/ha
  A (barnyard grass) weedkilling efficacy grade: 5 (weed kill ratio 90% or more, (practically complete withering))
Bulrush [5]; treatment dosage 252 g/ha
  B (bulrush) weedkilling efficacy grade: 5 (weed kill ratio 90% or more, (practically complete withering))
oval-leafed pondweed [6]; treatment dosage 252 g/ha
  C (oval-leafed pondweed) weedkilling efficacy grade: 4 (weed kill ratio 70% or more, less than 90%)
Crabgrass [7]; treatment dosage 315 g/ha
  D (crabgrass) weedkilling efficacy grade: 3 (weed kill ratio 40% or more, less than 70%)
Green foxtail [8]; treatment dosage 315 g/ha
  E (green foxtail) weedkilling efficacy grade: 3 (weed kill ratio 40% or more, less than 70%)
black-grass [10]; treatment dosage 315 g/ha
  H (black-grass) weedkilling efficacy grade: 5 (weed kill ratio 90% or more, (practically complete withering))
Italian ryegrass [11]; treatment dosage 315 g/ha
  I (Italian ryegrass) weedkilling efficacy grade: 3 (weed kill ratio 40% or more, less than 70%)
Indian mallow [12]; treatment dosage 315 g/ha
  K (Indian mallow) weedkilling efficacy grade: 0 (weed kill ratio 5% or less (practically no effect))
Redroot pigweed [13]; treatment dosage 315 g/ha
  L (redroot pigweed) weedkilling efficacy grade: 3 (weed kill ratio 40% or more, less than 70%)
fig-leafed goosefoot [21]
  M (fig-leafed goosefoot) weedkilling efficacy grade: 0 (weed kill ratio 5% or less (practically no effect))
Chickweed [14]; treatment dosage 315 g/ha
  N (chickweed) weedkilling efficacy grade: 4 (weed kill ratio 70% or more, less than 90%)
Catchweed [22]
  O (catchweed) weedkilling efficacy grade: 0 (weed kill ratio 5% or less (practically no effect))
birds-eye speedwell [15]; treatment dosage 315 g/ha
  P (birds-eye speedwell) weedkilling efficacy grade: 4 (weed kill ratio 70% or more, less than 90%)
Directly sown rice [16]; treatment dosage 315 g/ha
  b (directly sown rice) effect on crop grade: 1 (weed kill ratio 5% or more, less than 20%)
Corn [17]; treatment dosage 315 g/ha
  c (corn) effect on crop grade: 0 (weed kill ratio 5% or less (practically no effect))
Soybean [18]; treatment dosage 315 g/ha
  d (soybean) effect on crop grade: 0 (weed kill ratio 5% or less (practically no effect))
Wheat [19]; treatment dosage 315 g/ha
  e (wheat) effect on crop grade: 1 (weed kill ratio 5% or more, less than 20%)
Beet [20]; treatment dosage 315 g/ha
  f (beet) effect on crop grade: 0 (weed kill ratio 5% or less (practically no effect))
Crabgrass [23]
  D (crabgrass) weedkilling efficacy grade: 3 (weed kill ratio 40% or more, less than 70%)
Green foxtail [24]
  E (green foxtail) weedkilling efficacy grade: 1 (weed kill ratio 5% or more, less than 20%)
black-grass [25]
  H (black-grass) weedkilling efficacy grade: 3 (weed kill ratio 40% or more, less than 70%)
Italian ryegrass [26]
  I (Italian ryegrass) weedkilling efficacy grade: 3 (weed kill ratio 40% or more, less than 70%)
Indian mallow [27]
  K (Indian mallow) weedkilling efficacy grade: 0 (weed kill ratio 5% or less (practically no effect))
Redroot pigweed [28]
  L (redroot pigweed) weedkilling efficacy grade: 1 (weed kill ratio 5% or more, less than 20%)
fig-leafed goosefoot [29]
  M (fig-leafed goosefoot) weedkilling efficacy grade: 3 (weed kill ratio 40% or more, less than 70%)
Chickweed [30]
  N (chickweed) weedkilling efficacy grade: 0 (weed kill ratio 5% or less (practically no effect))
Catchweed [31]
  O (catchweed) weedkilling efficacy grade: 0 (weed kill ratio 5% or less (practically no effect))
birds-eye speedwell [32]
  P (birds-eye speedwell) weedkilling efficacy grade: 2 (weed kill ratio 20% or more, less than 40%)
Directly sown rice [33]
  b (directly sown rice) effect on crop grade: 1 (weed kill ratio 5% or more, less than 20%)
Corn [34]
  c (corn) effect on crop grade: 0 (weed kill ratio 5% or less (practically no effect))
Soybean [35]
  d (soybean) effect on crop grade: 1 (weed kill ratio 5% or more, less than 20%)
Wheat [36]
  e (wheat) effect on crop grade: 0 (weed kill ratio 5% or less (practically no effect))
Beet [37]
  f (beet) effect on crop grade: 1 (weed kill ratio 5% or more, less than 20%)

From patent US9738634B2, “Heterocyclic amide compound and herbicide” (SYNGENTA PARTICIPATIONS AG, priority 2013, dated 2017)
